Source: patent publication US7638556B2, “Freeze-dried product of N-[o-(p-pivaloyloxy benzenesulfonylamino)benzoyl]glycine monosodium salt tetra-hydrate and a process for the manufacture thereof” (Ono Pharmaceutical Co., Ltd., priority 2000, dated 2009)
Where two headings read alike, the source gives them in different places.

Legend:
[1] = solubility of compound (I) in water or ethanol; type: physicochemical
Experimental: However, compound (I) is hardly soluble in water or ethanol; the solubility is 0.4 mg/ml in water, and 6.0 mg/ml in ethanol. Therefore, by normal solvents it is difficult to prepare a clear solution for the process of a high-dosage freeze-dried product.
Compound (I) has, as shown above, a very low solubility; 0.4 mg/ml in water, 6.0 mg/ml in ethanol. In order to obtain a freeze-dried product to prepare a high-dosage product of this compound, it is necessary to improve the solubility.

[2] = solubility in mixed solvent of ethanol and water by titration until completely dissolved (Example 1); type: physicochemical; settings: thermodynamic from solid
Experimental: By the following method, the concentration of compound (I) was measured when compound (I) was completely dissolved in various ratios of mixed solvent comprising water and ethanol.
Above mixed solvent was titrated with various added volume for compound (I) and the mixture was vigorously stirred and was left alone for several minutes.
The above operation was done repeatedly until confirming that the solute was completely dissolved by visual recognition.
Solubility A was given by dividing the amount of solute (mg) with the volume of added solvent (ml) when the solute was completely dissolved; and solubility B was given by dividing the amount of solute with the volume of added solvent before the solute was completely dissolved (mg).
It is judged that the solubility of compound (I) to mixed solvent of ethanol and water is between solubility A and solubility B.

[3] = prior freeze-dried product method using sodium carbonate and water; cited from earlier work
elastase = biological target: T1, elastase (Homo sapiens, UniProt P08246); settings: cited from earlier work
T1 sequence (P08246 30-267): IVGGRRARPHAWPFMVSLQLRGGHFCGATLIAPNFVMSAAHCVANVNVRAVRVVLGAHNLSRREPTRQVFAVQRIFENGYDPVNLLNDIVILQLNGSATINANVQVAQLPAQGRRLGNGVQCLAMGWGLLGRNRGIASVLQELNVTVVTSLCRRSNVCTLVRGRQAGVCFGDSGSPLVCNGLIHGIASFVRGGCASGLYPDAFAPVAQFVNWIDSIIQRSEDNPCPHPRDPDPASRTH

CC(C)(C)C(=O)Oc1ccc(S(=O)(=O)Nc2ccccc2C(=O)NCC(=O)[O-])cc1.[Na+] [compound (I), N-[o-(p-pivaloyloxybenzenesulfonylamino)benzoyl]glycine monosodium salt tetra-hydrate]
solubility ([1]; in water): 400 µg/mL | solubility ([1]; organic solvent or mixture, in ethanol): 6000 µg/mL | solubility ([2]; aqueous with cosolvent or surfactant or cyclodextrin, ratio of ethanol 10 vol %, read-out: solubility A): 0.83 mg/mL | solubility ([2]; aqueous with cosolvent or surfactant or cyclodextrin, ratio of ethanol 10 vol %, read-out: solubility B): 0.91 mg/mL | solubility ([2]; aqueous with cosolvent or surfactant or cyclodextrin, ratio of ethanol 15 vol %, read-out: solubility A): 0.91 mg/mL | solubility ([2]; aqueous with cosolvent or surfactant or cyclodextrin, ratio of ethanol 15 vol %, read-out: solubility B): 1 mg/mL | solubility ([2]; aqueous with cosolvent or surfactant or cyclodextrin, ratio of ethanol 20 vol %, read-out: solubility A): 1.43 mg/mL | solubility ([2]; aqueous with cosolvent or surfactant or cyclodextrin, ratio of ethanol 20 vol %, read-out: solubility B): 1.67 mg/mL | solubility ([2]; aqueous with cosolvent or surfactant or cyclodextrin, ratio of ethanol 25 vol %, read-out: solubility A): 1.67 mg/mL | solubility ([2]; aqueous with cosolvent or surfactant or cyclodextrin, ratio of ethanol 25 vol %, read-out: solubility B): 2 mg/mL | solubility ([2]; aqueous with cosolvent or surfactant or cyclodextrin, ratio of ethanol 30 vol %, read-out: solubility A): 100 mg/mL | solubility ([2]; aqueous with cosolvent or surfactant or cyclodextrin, ratio of ethanol 30 vol %, read-out: solubility B): 125 mg/mL | solubility ([2]; aqueous with cosolvent or surfactant or cyclodextrin, ratio of ethanol 40 vol %, read-out: solubility A): 125 mg/mL | solubility ([2]; aqueous with cosolvent or surfactant or cyclodextrin, ratio of ethanol 40 vol %, read-out: solubility B): 167 mg/mL | solubility ([2]; aqueous with cosolvent or surfactant or cyclodextrin, ratio of ethanol 50 vol %, read-out: solubility A): 167 mg/mL | solubility ([2]; aqueous with cosolvent or surfactant or cyclodextrin, ratio of ethanol 50 vol %, read-out: solubility B): 250 mg/mL | solubility ([2]; aqueous with cosolvent or surfactant or cyclodextrin, ratio of ethanol 60 vol %, read-out: solubility A): 167 mg/mL | solubility ([2]; aqueous with cosolvent or surfactant or cyclodextrin, ratio of ethanol 60 vol %, read-out: solubility B): 250 mg/mL | solubility ([2]; aqueous with cosolvent or surfactant or cyclodextrin, ratio of ethanol 70 vol %, read-out: solubility A): 125 mg/mL | solubility ([2]; aqueous with cosolvent or surfactant or cyclodextrin, ratio of ethanol 70 vol %, read-out: solubility B): 167 mg/mL | solubility ([2]; aqueous with cosolvent or surfactant or cyclodextrin, ratio of ethanol 80 vol %, read-out: solubility A): 125 mg/mL | solubility ([2]; aqueous with cosolvent or surfactant or cyclodextrin, ratio of ethanol 80 vol %, read-out: solubility B): 167 mg/mL | solubility ([2]; aqueous with cosolvent or surfactant or cyclodextrin, ratio of ethanol 90 vol %, read-out: solubility A): 50 mg/mL | solubility ([2]; organic solvent or mixture, mixed solvent ethanol/water=3.0/7.0~8.0/2.0 (v/v), read-out: solubility): ≥ 80 mg/mL | solubility ([2]; organic solvent or mixture, ratio of ethanol 90 vol %, read-out: solubility B): 55.6 mg/mL | solubility ([2]; organic solvent or mixture, ratio of ethanol 100 vol %, read-out: solubility A): 5 mg/mL | solubility ([2]; organic solvent or mixture, ratio of ethanol 100 vol %, read-out: solubility B): 5.56 mg/mL | solubility ([2]; water, ratio of ethanol 0 vol %, read-out: solubility A): 0.22 mg/mL | solubility ([2]; water, ratio of ethanol 0 vol %, read-out: solubility B): 0.23 mg/mL | solubility [3]: < 80 mg/mL | inhibitory activity against elastase (elastase): inhibitory activity against elastase
